Measurements published in publication PMC10723784, “Investigation of the cytotoxicity induced by cannabinoids on human ovarian carcinoma cells” (Pharmacology Research & Perspectives, 2023).
Read-outs that look alike come from different tables or passages of the source.

Tests used:
A2780 cells [1] = assay: MTT cytotoxicity assay, A2780 cells; settings: for IC50: Homo sapiens, read-out: IC50 cytotoxicity
Method: (§1) In separate experiments, cells were seeded in 96‐well plates and after 24 h elapsed they were exposed to different concentrations of drugs or vehicle. Cells were then left in the incubator for a further 24 or 48 h. Then the media was replaced with fresh media containing no drug and the cells were left in the incubator. MTT assay was performed after 96 h elapsed from the time when cells were exposed to drugs or vehicle.
(§2) The cells were then left in the incubator and MTT assay was performed 96 h following the initial exposure to the drugs.
(§3) The selective index (SI) is the ratio of mean IC50 values for non‐cancer cells to cancer cells. […] While the isobologram can be considered predominantly as a graphical depiction of drug interactions, the combination index (CI) is a quantitative representation. It relates the actual drug concentration in the combination to the concentration of the single drug that achieves the same effect. […] Here, CI analysis was used to investigate combinations at 50% cytotoxicity. To this end the IC50 of the viability dose–response curves were determined by non‐linear regression curve fit analysis (GraphPad Prism, v5.00).
(§4) CIA+B is the combination index of A and B; C A the concentration of A applied in combination; C B the concentration of B applied in combination; IC50 A the IC50 of drug A when it was applied individually to the cells; IC50 B = IC50 of drug B when it was applied individually to the cells.

A2780/CP70 cells [2] = assay: MTT cytotoxicity assay, A2780/CP70 cells; settings: for IC50: Homo sapiens, read-out: IC50 cytotoxicity
Method: as §1, §2, §3, §4

A2780 cells [3] = assay: Cell cycle analysis (DAPI, NC-3000), A2780 cells; format: cell-based, human; settings: 48 h
Method: (§5) Cells were seeded in T25 flasks at 4 × 10^5 cells per flask and were incubated for 48 h or until they reached confluency. […] After the incubation time elapsed cells were suspended in PBS with a density closer to 1 × 10^6cells/mL. The cells were washed twice with 1× PBS before the addition of 250 μL of lysis buffer (solution 10) supplemented with 10 μg/mL DAPI (solution 12) was added to the samples and incubated for 5 min at 37°C. After incubation, 250 μL of stabilization buffer (solution 11) was added. 12.5 μL of samples were loaded on to an A‐8 slide and were analyzed using the NC‐3000 system.

A2780/CP70 cells [4] = assay: Cell cycle analysis (DAPI, NC-3000), A2780/CP70 cells; format: cell-based, human; settings: 48 h
Method: as §5

With CCCCCc1cc(O)c(C/C=C(\C)CCC=C(C)C)c(O)c1 [CBG, cannabigerol] the IC50 (A2780 cells [1]; A2780, 24 h) was 15.3 ± 0.3 µM, the IC50 (A2780 cells [1]; A2780, 48 h) was 13.9 ± 0.6 µM and the IC50 (A2780 cells [1]; A2780, 72 h) was 9.4 ± 0.8 µM. It also gave an IC50 (A2780 cells [1]; A2780, 96 h) of 5.7 ± 0.2 µM, a Selectivity index (A2780 cells [1]; IC50 ARPE19 / IC50 A2780, 24 h) of 2.09 and a Selectivity index (A2780 cells [1]; IC50 ARPE19 / IC50 A2780, 48 h) of 1.53. It also gave a Selectivity index (A2780 cells [1]; IC50 ARPE19 / IC50 A2780, 72 h) of 2.04, a Selectivity index (A2780 cells [1]; IC50 ARPE19 / IC50 A2780, 96 h) of 3.05 and a Selectivity index (A2780 cells [1]; IC50 PNT2 / IC50 A2780, 24 h) of 2.43. The Selectivity index (A2780 cells [1]; IC50 PNT2 / IC50 A2780, 48 h) was 1.65, the Selectivity index (A2780 cells [1]; IC50 PNT2 / IC50 A2780, 72 h) was 2.12 and the Selectivity index (A2780 cells [1]; IC50 PNT2 / IC50 A2780, 96 h) was 3.20. The IC50 (A2780/CP70 cells [2]; A2780/CP70, 24 h) was 17.7 ± 0.1 µM, the IC50 (A2780/CP70 cells [2]; A2780/CP70, 48 h) was 15.4 ± 0.7 µM and the IC50 (A2780/CP70 cells [2]; A2780/CP70, 72 h) was 12.3 ± 1.4 µM. It also gave an IC50 (A2780/CP70 cells [2]; A2780/CP70, 96 h) of 7.1 ± 0.8 µM, a Selectivity index (A2780/CP70 cells [2]; IC50 ARPE19 / IC50 A2780/CP70, 24 h) of 1.81 and a Selectivity index (A2780/CP70 cells [2]; IC50 ARPE19 / IC50 A2780/CP70, 48 h) of 1.37. It also gave a Selectivity index (A2780/CP70 cells [2]; IC50 ARPE19 / IC50 A2780/CP70, 72 h) of 1.56, a Selectivity index (A2780/CP70 cells [2]; IC50 ARPE19 / IC50 A2780/CP70, 96 h) of 2.45 and a Selectivity index (A2780/CP70 cells [2]; IC50 PNT2 / IC50 A2780/CP70, 48 h) of 1.48. For the same molecule, the Selectivity index (A2780/CP70 cells [2]; IC50 PNT2 / IC50 A2780/CP70, 72 h) was 1.59, the Selectivity index (A2780/CP70 cells [2]; IC50 PNT2 / IC50 A2780/CP70, 96 h) was 2.56 and the “Cells in G0/G1 phase” value (A2780 cells [3]; A2780, 10 μM) was 79.1 ± 0.4%. For the same molecule, the “Cells in G0/G1 phase” value (A2780 cells [3]; A2780, 30 μM) was 80.2 ± 1.3%, the “Cells in G0/G1 phase” value (A2780 cells [3]; A2780, 50 μM) was 67.6 ± 1.1% and the “Cells in subG1 phase” value (A2780 cells [3]; A2780, 50 μM) was 8.7 ± 0.6%. The “Cells in G0/G1 phase” value (A2780/CP70 cells [4]; A2780/CP70, 10 μM) was 86.4 ± 0.5%, the “Cells in G0/G1 phase” value (A2780/CP70 cells [4]; A2780/CP70, 30 μM) was 90.6 ± 0.4% and the “Cells in S phase” value (A2780/CP70 cells [4]; A2780/CP70, 30 μM) was 5.6 ± 0.6%. For the same molecule, the “Cells in G2/M phase” value (A2780/CP70 cells [4]; A2780/CP70, 50 μM) was 16.4 ± 1.9%.
